Laboratory results from US10370359B2, “Process for the preparation of crystalline dexlansoprazole” (DIPHARMA FRANCIS S.r.l., priority 2017, dated 2019).
Where two headings read alike, the source gives them in different places.

What was measured:
[1] = assay type: physicochemical; conditions: for purity of the samples, 24 h: after 24 hours at 70° C. in an oven; for purity of the samples, 24 h / purity of the samples, 48 h / purity of the samples, 72 h / purity of the samples, 0 h: HPLC at 285 nm; for purity of the samples, 48 h: after 48 hours at 70° C. in an oven; for purity of the samples, 72 h: after 72 hours at 70° C. in an oven; for purity of the samples, 0 h: time 0, before heating at 70° C.
Description: The samples of crystalline anhydrous dexlansoprazole prepared according to the method of the present invention (new method) and those made according to the method of U.S. Pat. No. 8,314,241 (present Example 4) are heated in an oven at 70° C.
After 24, 48 and 72 hours, samples are taken and analyzed by HPLC at a wavelength of 285 nm.

[2] = Thermal stability of dexlansoprazole in solution (dispersion), HPLC; assay type: physicochemical; conditions: dispersion 14 hours at 45° C., distillation at 50° C. at reduced pressure, further 14 hours at 45° C.; not present at time 0
Description: In order to establish the thermal stability of dexlansoprazole the dispersion of dexlansoprazole was heated for 14 hours at 45° C., then a distillation at 50° C. at reduced pressure was performed and finally the dispersion was kept for further 14 hours at 45° C.
The color of the resulting dispersion turned into a slight yellow.

[3] = listed as crystalline anhydrous dexlansoprazole prepared with the procedure of the present

| SMILES | increase of the contents of all the impurities ([1]; after 24 hours at 70° C.) | purity of the samples, 24 h [1] | purity of the samples, 48 h [1] | increase of the contents of all the impurities ([1]; after 72 hours at 70° C.) | purity of the samples, 72 h [1] | purity of the samples, 0 h [1] | decrease of the concentration of crystalline anhydrous dexlansoprazole ([1]; 70° C. for 72 hours, Area % HPLC at 285 nm) | purity of the samples, 72 h [1, 3] | purity of the samples, 0 h [1, 3] | content of impurity of formula (I) formed [2] |
| --- | --- | --- | --- | --- | --- | --- | --- | --- | --- | --- |
| Cc1c(OCC(F)(F)F)ccnc1C[S@@+]([O-])c1nc2ccccc2[nH]1 [U.S. Pat. No. 8,314,241] | more than 0.2% | 99.28% | 99.09% | 0.60% | 98.91% | 99.51% |  |  |  |  |
| Cc1c(OCC(F)(F)F)ccnc1C[S@@+]([O-])c1nc2ccccc2[nH]1 [Method of the present invention] |  | 99.95% | 99.93% |  | 99.93% | 99.96% | less than 0.1% | 99.93% | 99.96% |  |
| Cc1c(OCC(F)(F)F)ccnc1C[S@@+]([O-])c1nc2ccccc2[nH]1 [dexlansoprazole] |  |  |  |  |  |  |  |  |  | 0.03% |
